Measured values: US6887713B2, “Bioactive chip mass spectrometry” (Intrinsic Bioprobes, Inc., priority 2000, dated 2005)

Biological target: streptavidin (Streptomyces avidinii, UniProt P22629)
Details: mixture of 10.0 μM Pep K and 10.0 μM Pep R, 60 s at 20 μl/min, then ~15 s running buffer; immobilized streptavidin
Method: A bioactive chip BC containing streptavidin-derivatized separation site SS was exposed for 60 s (at a flow rate of 20 μl/min) to a mixture containing 10.0 μM Pep K and 10.0 μM Pep R, after which a ˜15 s exposure to the running buffer followed. The separation site SS on the bioactive chip BC was then MALDI-TOF MS analyzed.
The fitting parameters are listed in the figure and were used with starting concentrations of [Pep K]=7 uM; [Pep K(ox)]=3 uM; and [Pep R & Pep R(ox)]=10 uM. A criterion was used in which the relative quantities of the individual species at the end of the run corresponded to the relative quantities estimated from the mass spectrum taken from the surface of the separation site SS.

streptavidin, sequence (P22629 25-183, species assumed): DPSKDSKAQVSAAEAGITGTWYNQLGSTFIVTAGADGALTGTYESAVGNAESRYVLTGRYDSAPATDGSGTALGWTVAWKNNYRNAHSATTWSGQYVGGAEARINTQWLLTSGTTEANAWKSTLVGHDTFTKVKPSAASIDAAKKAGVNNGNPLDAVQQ

Q: SGTSFHPQWIMVGRVATNSP [PepR] was tested. Which “retention by / affinity for streptavidin (change in MALDI-TOF ion signal intensity ratio before vs after interaction)” value did it give?
A: preferential retention
